“And” between values parts separate entries of the source, which are not always exact repeats. Identical values can stand only once. Values belong to the compound of their own block, whether it stands above or below them.
Assays:
[1] = tested on: dogs with electrically induced ventricular fibrillation; assay: Phase Ib: cardiac resuscitation of dogs after induced ventricular fibrillation (Thumper CPR, external defibrillation, T3a bolus into right ventricle); format: in vivo, dog; details: Post T3a (15 m), individual dogs
Procedure: All animals were fasted overnight and anesthesia was induced by intravenous sodium thiopental (Pentothal sodium 15-25 mg/kg). After intubation and ventilation by a ventilator (North American Dräger, Anesthesia and Ventilator, Model AVE-K, Serial No. 5033), anesthesia was maintained by 2% isoflurane (Isoflurane Vaporizer, R-Vapor, R-24045), and oxygen. ECG (Hewlett Packard Model No. 78346A). Oxygen saturation was monitored continuously. Preoperatively, all animals received Acepromazine maleate, 0.25-0.5 mg, I.M, lactated Ringer's solution was given intravenously (250 ml-350 ml/hr) during the procedure.
A 8.5Fr. catheter sheath was introduced into the right femoral artery and the side arm was connected to a fluid transducer for the continuous measurement of systemic arterial blood pressure. A 7Fr. Bipolar Multipurpose A-2 Electrode Catheter, 1 Lumelec™ (Lot no. 30395908, Catalog no. 528-724, Cordis, USA) tipped with pressure transducer with 2 side holes, 2 electrodes with an open end, 125 cm long, and 0.038 inch diameter, was advanced through the catheter sheath, and placed into the left ventricle. Continuous measurement of the systemic left ventricular pressure was obtained. Analog signals from the pressure transducers were obtained using an amplifier (PM-1000, CWE Inc., Ardmore, Pa.).
A 8.5Fr. catheter sheath was introduced into the right femoral vein and a 7Fr. MP A2, Multipurpose high flow catheter (catalog no. 527-742, Cordis, USA) with open end and side holes was placed into the right ventricle for T3a injections. Another 7Fr. catheter sheath was introduced into the left femoral artery and a 6Fr. pigtail catheter (catalog no. 527-654S, 110 cm, 155° angled) was placed into the descending aorta for the collection of aortic blood samples after T3a injections into the right ventricle. ECG (Hewlett-Packard, Model No. 78346A, Ser. No. 2320A00522) was continuously monitored. A temperature-monitoring device (T. SIN, Japan, designed for YSI series 400 thermistors), connected to the data acquisition system, was introduced into the external ears of all the animals to continuously measure body temperature.
The two distal ends of the 7Fr. Bipolar Multipurpose A-2 Electrode Catheter were connected to a Transformer. The electrical system can deliver 15V, 20 mA AC current through the pacing catheter system. The anesthesia was stopped. A venous blood sample from the right ventricle was obtained. Lid reflexes returned in several minutes.
The lid reflexes were checked by the finger method system and when frequent blinking of the lids was obtained, procedures for the ventricular fibrillation were carried out. […]
The force of compression necessary to achieve this baseline condition was recorded and not altered during subsequent provision of chest compressions. […]

[2] = tested on: dogs with electrically induced ventricular fibrillation; assay: Phase Ia (methodology section): fibrillation/defibrillation in dogs with T3a or epinephrine; format: in vivo, dog; details: individual dogs
From the text: Phase 1a was dedicated towards developing the basic methodology in the initial experiments, manual chest compression (CPR) and an internal defibrillator were employed. Induction of ventricular fibrillation and defibrillation were problematic with the internal electrodes because of the size mismatch: electrodes designed for humans being used in a smaller sized animal. In later experiments, the internal system was replaced with an LV pacing catheter connected to AC current via a step-down transformer (to induce ventricular fibrillation), and a new external, “hands-off” defibrillator. The manual chest compression was replaced with a THUMPER CPR system.
In the experiments, T3a was given 30 seconds before defibrillation. Preferably, T3a injection was given 60 to 90 seconds after defibrillation.
The results section was divided into Phases Ia (n=9) and Ib (n=8). The hemodynamic data were not consistently available in Phase Ia as there was no spontaneous or induced recovery except for 3 animals. Use of T3a was limited to only 3 dogs in this phase although epinephrine was used in 5 of them. This phase was dedicated towards the development of the Phase Ib parameters.
HVS-02 Fibrillator and Defibrillator were used in the tests. The operating instructions for the HVS-02 Fibrillator and Defibrillator can be found in the Manual for HVS-02 Fibrillator and Defibrillator.
Phase Ia was dedicated towards developing the basic methodology. […] In 3 animals, the hemodynamic data after defibrillation were less than the pre-fibrillatory data. […] In the experiments, internal defibrillator was used for the preliminary experiments and T3a was given just before defibrillation (30 seconds). Moreover, THUMPER CPR was used in the last 2 dogs instead of manual CPR. Thumper CPR worked well and it was used for the subsequent T3a experiments of Phase Ib. Manual chest compression was maintained for another 5 minutes after defibrillation and T3a or epinephrine injections. Bolus epinephrine injection (100 μg/kg) was used in 5 random dogs.

[3] = background statement; bound to thyroxine-binding globulin in human serum; cited from earlier work
[4] = Serum total T3 levels after T3a bolus during cardiac resuscitation in dogs; format: in vivo, dog
Procedure: Subsequent blood samples were obtained from the arterial circulation at 0.5 to 1.5 minutes after the bolus injection, and also at 15 to 20 minutes and 30 minutes, respectively.
Before sending the blood sample for immunoassay, in each experiment all the blood samples were collected in red-topped serum separator tubes. The tubes were centrifuged at 2500 rpm on a tabletop centrifuge for 10 minutes at 4° C. to separate the cells from the serum. The blood samples were then stored and frozen at −4° C.

[5] = Pharmacokinetic studies in a rodent model: serum T3 after single intramuscular bolus; format: in vivo, rat; details: rats; for Serum T3 level as % of the peak value: within 2 hours of injection
[6] = tested on: purified cultured cardiac myocytes; details: 125I-T3 at 10^−8 M

Compound: CNC[C@H](O)c1ccc(O)c(O)c1 [Epi, epinephrine]
D. AoP [1]: 64.0 mmHg
Recover [1]: Yes
S. AoP [1]: 82.7 mmHg
S. LVP [1]: 103.0 mmHg
Recover ([2]; After D-Fib (+ drug)): No (2×) and Yes
D. AoP ([2]; Post (15 m)): 76.1 mmHg
Recover ([2]; Post (15 m)): No (2×) and Yes
S. AoP ([2]; Post (15 m)): 89.3 mmHg
S. LVP ([2]; Post (15 m)): 110.2 mmHg

Compound: NC(Cc1cc(I)c(Oc2cc(I)c(O)c(I)c2)c(I)c1)C(=O)O (stereo not shown) [T4]
Half-life [3]: 140 to 170 h

Time serum T3 levels were maintained at high level ([4]; 4 μg T3/kg): 30 min
Serum T3 levels ([4]; 4 μg T3/kg, within 2 minutes of drug administration): greater than 9000 ng/dl
Increase of serum T3 level over baseline ([4]; bolus 4 μg/kg, one minute after injection, baseline 87±6 ng/dl): 100 fold
Half-life of T3 in serum, 5 μg/kg versus 100 μg/kg ([5]; i.m.): identical
Serum T3 level as % of peak values ([5]; i.m., 24 hours after injection, within normal physiological range): 10%
Serum T3 level as % of the peak value ([5]; i.m., high dose 100 μg/Kg): 64%
Serum T3 level as % of the peak value ([5]; i.m., low dose 5 μg/Kg): 90%
Time to peak serum T3 values ([5]; intramuscular, 5 μg/Kg and 100 μg/Kg): ≤ 30 min
Compound: N[C@@H](Cc1cc(I)c(Oc2ccc(O)c(I)c2)c(I)c1)C(=O)O [T3, 3,5,3′-triiodothyronine]
Time to detection of T3 in the nucleus of the cell [6]: ≤ 5 min
